A word on the IC50: it is the concentration that inhibits the measured activity by half.

The test system of the assay is phosphorylation of Serine-9 residue in Glycogen Synthase Kinase-3beta as surrogate marker of cellular PKB (Akt) activity. Kind of assay: In vitro MDA-MB-468 human breast adenocarcinoma GSK-3 phosphorylation assay. In kind it is cell-based. To be noted: MDA-MB-468 cells, 2 hours compound incubation, mean IC50, read-out: Cell pGSK3b IC50. From the text:
This assay determines the ability of test compounds to inhibit phosphorylation of Serine-9 residue in Glycogen Synthase Kinase-3beta (GSK-313) as a surrogate marker of cellular PKB (Akt) activity, as assessed using Acumen Explorer Fluorescent Plate-Reader technology. A MDA-MB-468 human breast adenocarcinoma cell line (LGC Promochem, Teddington, Middlesex, UK, Catalogue No. HTB-132) was routinely maintained in Dulbecco's modified Eagle's growth medium (DMEM; Invitrogen Limited, Paisley, UK Catalogue No. 11966-025) containing 10% heat-inactivated foetal calf serum (FCS; Sigma, Poole, Dorset, UK, Catalogue No. F0392) and 1% L-glutamine (Gibco, Catalogue No. 25030-024) at 37° C. with 5% CO2 up to a confluency of 70-90%.
For the phosphorylation assay, the cells were detached from the culture flask using Trypsin-EDTA (Invitrogen Limited, Catalogue No. 25300-062) and seeded into the wells of a black transparent-bottom Corning Costar Polystyrene 96 well plate (Fisher Scientific UK, Loughborough, Leicestershire, UK; Catalogue No. 3904 and DPS-130-020K) at a density of 5000 cells per well in 100 μl of complete growth media. The cells were incubated overnight at 37° C. with 5% CO2 to allow them to adhere.
On day 2, the cells were treated with test compounds and incubated for 2 hours at 37° C. with 5% CO2. Test compounds were prepared as 10mM stock solutions in DMSO and dosed directly to required concentration into test wells using non-contact (acoustic dispensing of multiple 2.5 nl droplets directly into assay wells) ECHO dosing technology (Labcyte Inc Sunnyvale, Calif., USA). Each plate contained control wells without test compound.
20 μl of fixing buffer (Phosphate Buffered Saline (PBS) containing 10% formaldehyde; Sigma; Catalogue No. F1635) was then added to each well to give a final well concentration 1.6%. Plates were then incubated for 30 minutes at room temperature prior to the fixative being removed. Each well was washed once with 250 μl of PBS and then 50 μl PBS added to each well. PBS was then aspirated and cells permeabilised and blocked by incubating each well with 50 μl of permeabilisation/blocking buffer (PBS containing 0.5% Tween 20 (Sigma; Catalogue No. P5927) and 5% Marvel Milk Powder (Andrews Pharmacy Ltd, Macclesfield, Cheshire, UK; Catalogue No. APC100199)) for 1 hour at room temperature prior to staining.
Following removal of Perm/Block buffer, 50 μl of primary anti-phospho-GSK-3β antibody (Cell Signalling Technology (New England Biolabs (Uk) Ltd.), Hitchin, Hertfordshire, UK; Catalogue No.9336 diluted 1:400 in Blocking buffer (PBS containing 5% Marvel and 0.05% Tween/Polysorbate 20) was added to each well and incubated overnight at 4° C.
Each well was washed three times in 250 μl of wash buffer (PBS containing 0.05% polysorbate 20), and cells incubated for 1 hour at room temperature with 50 μl of secondary fluorescently-labelled anti-rabbit Alexa Fluor 488 antibody (Molecular Probes, Invitrogen Limited, Catalogue No. A11008) diluted 1:750 in blocking buffer. Plates were washed three times in 250 μl of wash buffer and stored containing 50 μl of PBS at 4° C. until required.
Plates were analysed using an Acumen Explorer Plate-reader to quantify level of fluorescent signal that represents quantity of phosphorylated-GSK-313.
IC50 calculation—IC50 is the concentration of compound required to give 50% effect over the range of activity affected by the compound, between maximum (no compound) and minimum (excess level of compound) response control data. IC50 values were determined by fitting background corrected, dose response assay data to a 4 parameter logistic curve fit equation model with the minimum response set to zero. This was done using an in-house developed algorithm within the Origin graphing software package (OriginLab Corporation, Northampton, Mass., USA). […]

Consider `NC1(c2nc3cc(F)c(Cl)cc3[nH]2)CCN(c2ncnc3[nH]ccc23)CC1` [Example 52, 4-(6-chloro-5-fluoro-1H-benzimidazol-2-yl)-1-(7H-pyrrolo[2,3-d]pyrimidin-4-yl)piperidin-4-amine], for which the IC50 was determined as 1300 nM.

As to `NC1(c2nc3c(-c4ccncc4)cccc3[nH]2)CCN(c2ncnc3[nH]ccc23)CC1` [Example 92, 4-(4-pyridin-4-yl-1H-benzimidazol-2-yl)-1-(7H-pyrrolo[3,2-e]pyrimidin-4-yl)piperidin-4-amine], the IC50 was 33 nM.

In the case of `CN1CCN(c2ccc3[nH]c(C4(N)CCN(c5ncnc6[nH]ccc56)CC4)nc3c2)CC1` [Example 60, 4-(5-(4-methylpiperazin-1-yl)-1H-benzo[d]imidazol-2-yl)-1-(7H-pyrrlo[2,3-d]pyrimidin-4-yl)piperidin-4-amine], the IC50 is 8600 nM.

Regarding `NC1(c2nc3cc(-c4ccccc4)ccc3[nH]2)CCN(c2ncnc3[nH]ccc23)CC1` [Example 68D, 4-(5-phenyl-1H-benzo[d]imidazol-2-yl)-1-(7H-pyrrolo[2,3-d]pyrimidin-4-yl)piperidin-4-amine], the IC50 is 2400 nM.

With `NCC1(c2nc3cc(Br)ccc3[nH]2)CCN(c2ncnc3[nH]ccc23)CC1` [Example 89E, (4-(5-Bromo-1H-benzo[d]imidazol-2-yl)-1-(7H-pyrrolo[2,3-d]pyrimidin-4-yl)piperidin-4-yl)methanamine], the IC50 is 81 nM.

Regarding `COc1ccc(Oc2ccc3[nH]c(C4(N)CCN(c5ncnc6[nH]ccc56)CC4)nc3c2)cc1` [Example 64, 4-(5-(4-Methoxyphenoxy)-1H-benzo[d]imidazol-2-yl)-1-(7H-pyrrolo[2,3-d]pyrimidin-4-yl)piperidin-4-amine], the IC50 turned out to be 380 nM.

Regarding `Cc1cc2[nH]c(C3(N)CCN(c4ncnc5[nH]ccc45)CC3)nc2cc1Cl` [Example 57, 4-(5-chloro-6-methyl-1H-benzo[d]imidazol-2-yl)-1-(7H-pyrrolo[2,3-d]pyrimidin-4-yl)piperidin-4-amine], the IC50 was greater than 2100 nM.

For `NCC1(c2nc3ccccc3[nH]2)CCN(c2ncnc3[nH]nc(Br)c23)CC1` [Example 46, (4-(1H-benzo[d]imidazol-2-yl)-1-(3-bromo-1H-pyrazolo[3,4-d]pyrimidin-4-yl)piperidin-4-yl)methanamine], the IC50 came out at 97 nM.

`COc1cccc(-c2cccc3[nH]c(C4(N)CCN(c5ncnc6[nH]ccc56)CC4)nc23)c1` [Example 81, -[4-(3-methoxyphenyl)-1H-benzimidazol-2-yl]-1-(7H-pyrrolo[2,3-d]pyrimidin-4-yl)piperidin-4-amine]: the IC50 is 140 nM.

With `CS(=O)(=O)Cc1cccc(-c2cccc3[nH]c(C4(N)CCN(c5ncnc6[nH]ccc56)CC4)nc23)c1` [Example 115, 4-(4-(3-(methylsulfonylmethyl)phenyl)-1H-benzo[d]imidazol-2-yl)-1-(7H-pyrrolo[2,3-d]pyrimidin-4-yl)piperidin-4-amine], the IC50 worked out at 270 nM.

Turning to `Cc1cc(Cl)cc2nc(C3(N)CCN(c4ncnc5[nH]ccc45)CC3)[nH]c12` [Example 58, 4-(5-Chloro-7-methyl-1H-benzo[d]imidazol-2-yl)-1-(7H-pyrrolo[2,3-d]pyrimidin-4-yl)piperidin-4-amine], the half-inhibitory concentration (IC50) worked out at 1400 nM.

For `NCC1(c2nc3ccccc3[nH]2)CCN(c2ncnc3[nH]cnc23)CC1` [Example 44, (4-(1H-benzo[d]imidazol-2-yl)-1-(9H-purin-6-yl)piperidin-4-yl)methanamine], the IC50 was determined as 120 nM.

As to `NCC1(c2nc3ccccc3[nH]2)CCN(c2ncnc3[nH]ccc23)CC1` [Example 34D, C-[4-(1H-Benzoimidazol-2-yl)-1-(7H-pyrrolo[2,3-d]pyrimidin-4-yl)-piperidin-4-yl]-methylamine], the IC50 was determined as 86 nM.

`NC1(c2nc3ccc(Cl)cc3[nH]2)CCN(c2ncnc3[nH]ncc23)CC1` [Example 22, 4-(6-chloro-1H-benzoimidazol-2-yl)-1-(1H-pyrazolo[3,4-d]pyrimidin-4-yl)-piperidin-4-ylamine]: the IC50 came out at 770 nM.

With `COc1cccc(-c2ccc3[nH]c(C4(N)CCN(c5ncnc6[nH]ccc56)CC4)nc3c2)c1` [Example 76, 4-[5-(3-methoxyphenyl)-1H-benzimidazol-2-yl]-1-(7H-pyrrolo[2,3-d]pyrimidin-4-yl)piperidin-4-amine], the IC50 came to 6400 nM.

On to `NC1(c2nc3ccc(C(F)(F)F)cc3[nH]2)CCN(c2ncnc3[nH]ccc23)CC1` [Example 50, 1-(7H-Pyrrolo[2,3-d]pyrimidin-4-yl)-4-[6-(trifluoromethyl)-1H-benzimidazol-2-yl]piperidin-4-amine], for which the IC50 worked out at 480 nM.

With `NC1(c2nc3c(-c4ccccc4)cccc3[nH]2)CCN(c2ncnc3[nH]ccc23)CC1` [Example 42, 4-(4-Phenyl-1H-benzoimidazol-2-yl)-1-(7H-pyrrolo[2,3-d]pyrimidin-4-yl)-piperidin-ylamine], the IC50 is less than 31 nM.

For `NC1(c2nc3cc(OC(F)(F)F)ccc3[nH]2)CCN(c2ncnc3[nH]ccc23)CC1` [Example 61, 1-(7H-Pyrrolo[2,3-d]pyrimidin-4-yl)-4-(5-(trifluoromethoxy)-1H-benzo[d]imidazol-2-yl)piperidin-4-amine], the IC50 amounted to 620 nM.

With `NC1(c2nc3cc(-c4cccnc4)ccc3[nH]2)CCN(c2ncnc3[nH]ccc23)CC1` [Example 77, 4-(5-pyridin-3-yl-1H-benzimidazol-2-yl)-1-(7H-pyrrolo[2,3-d]pyrimidin-4-yl)piperidin-4-amine], the IC50 is 12000 nM.

As for `NC1(c2nc3c(-c4ccccc4)cccc3[nH]2)CCN(c2ncnc3[nH]ncc23)CC1` [Example 108, 4(4-phenyl-1H-benzo[d]imidazol-2-yl)-1-(1H-pyrazolo[3,4-d]pyrimidin-4-yl)piperidin-4-amine], the IC50 turned out to be 350 nM.

For the compound `NCC1(c2nc3ccccc3[nH]2)CCN(c2ncnc3[nH]cc(Br)c23)CC1` [Example 48, (4-(1H-benzo[d]imidazol-2-yl)-1-(5-bromo-7H-pyrrolo[2,3-d]pyrimidin-4-yl)-piperidin-4-yl)methanamine], the IC50 turned out to be 210 nM.

As for `NC1(c2nc3cc(-c4ccoc4)ccc3[nH]2)CCN(c2ncnc3[nH]ccc23)CC1` [Example 69, 4-(5-furan-3-yl-1H-benzimidazol-2-yl)-1-(7H-pyrrolo[2,3-d]pyrimidin-4-yl)piperidin-4-amine], the IC50 amounted to 1600 nM.

`NCC1(c2nc3c(C4CCOC4)cccc3[nH]2)CCN(c2ncnc3[nH]ccc23)CC1` (centres unmarked) [Example 101, [4-[4-(oxolan-3-yl)-1H-benzimidazol-2-yl]-1-(7H-pyrrolo[3,2-e]pyrimidin-4-yl)piperidin-4-yl]methanamine]: the IC50 was found to be 9.3 nM.

Turning to `CS(=O)(=O)Cc1ccccc1-c1cccc2[nH]c(C3(N)CCN(c4ncnc5[nH]ccc45)CC3)nc12` [Example 116, 4-(4-(2-(methylsulfonylmethyl)phenyl)-1H-benzo[d]imidazol-2-yl)-1-(7H-pyrrolo[2,3-d]pyrimidin-4-yl)piperidin-4-amine], the IC50 came out at 47 nM.

Regarding `NC1(c2nc3c(-c4cn[nH]c4)cccc3[nH]2)CCN(c2ncnc3[nH]ccc23)CC1` [Example 93, 4-[4-(1H-pyrazol-4-yl)-1H-benzimidazol-2-yl]-1-(7H-pyrrolo[3,2-e]pyrimidin-4-yl)piperidin-4-amine], the IC50 stood at 250 nM.

On to `NC1(c2nc3ccc(Cl)cc3[nH]2)CCN(c2ncnc3[nH]cnc23)CC1` [Example 21, 4-(6-chloro-1H-benzoimidazol-2-yl)-1-(9H-purin-6-yl)-piperidin-4-ylamine], for which the half-maximal inhibitory concentration (IC50) was 250 nM.

These data come from patent publication US20100093748A1, “SUBSTITUTED PIPERIDINES HAVING PROTEIN KINASE INHIBITING ACTIVITY” (ASTEX THERAPEUTICS LIMITED, priority 2006, published 2010).
